Consider 3 compounds from US10272081B2, “SHIP1 modulators and methods related thereto” (Aquinox Pharmaceuticals (Canada) Inc., priority 2013, dated 2019).

For experiment [1], the system named is carrageenan paw edema in mice. Briefly: Carrageenan paw edema in mice. Format: in vivo. As to conditions: 30 mg/kg orally one hour before carrageenan, 4 hours after carrageenan. As to the method:
The activity of representative compounds on carrageenan paw edema in mice was evaluated according to the procedures disclosed by Winter et al., Proc Soc Exp Biol Med 111, 544-547, 1962 which is incorporated herein by reference in its entirety.
To induce edema in the paw, test compounds were administered orally one hour before intraplantar injection of the right hind paw with carrageenan (50 μL of 1% suspension). Hind paw edema, as a measure of inflammation, was recorded using a plethysmometer (Ugo Basile, Italy) 4 hours after λ-carrageenan administration.

The target of another experiment is T1, His-hSHIP1 enzyme (Homo sapiens, UniProt Q92835).
T1 construct: His
T1 sequence (Q92835 1-1189): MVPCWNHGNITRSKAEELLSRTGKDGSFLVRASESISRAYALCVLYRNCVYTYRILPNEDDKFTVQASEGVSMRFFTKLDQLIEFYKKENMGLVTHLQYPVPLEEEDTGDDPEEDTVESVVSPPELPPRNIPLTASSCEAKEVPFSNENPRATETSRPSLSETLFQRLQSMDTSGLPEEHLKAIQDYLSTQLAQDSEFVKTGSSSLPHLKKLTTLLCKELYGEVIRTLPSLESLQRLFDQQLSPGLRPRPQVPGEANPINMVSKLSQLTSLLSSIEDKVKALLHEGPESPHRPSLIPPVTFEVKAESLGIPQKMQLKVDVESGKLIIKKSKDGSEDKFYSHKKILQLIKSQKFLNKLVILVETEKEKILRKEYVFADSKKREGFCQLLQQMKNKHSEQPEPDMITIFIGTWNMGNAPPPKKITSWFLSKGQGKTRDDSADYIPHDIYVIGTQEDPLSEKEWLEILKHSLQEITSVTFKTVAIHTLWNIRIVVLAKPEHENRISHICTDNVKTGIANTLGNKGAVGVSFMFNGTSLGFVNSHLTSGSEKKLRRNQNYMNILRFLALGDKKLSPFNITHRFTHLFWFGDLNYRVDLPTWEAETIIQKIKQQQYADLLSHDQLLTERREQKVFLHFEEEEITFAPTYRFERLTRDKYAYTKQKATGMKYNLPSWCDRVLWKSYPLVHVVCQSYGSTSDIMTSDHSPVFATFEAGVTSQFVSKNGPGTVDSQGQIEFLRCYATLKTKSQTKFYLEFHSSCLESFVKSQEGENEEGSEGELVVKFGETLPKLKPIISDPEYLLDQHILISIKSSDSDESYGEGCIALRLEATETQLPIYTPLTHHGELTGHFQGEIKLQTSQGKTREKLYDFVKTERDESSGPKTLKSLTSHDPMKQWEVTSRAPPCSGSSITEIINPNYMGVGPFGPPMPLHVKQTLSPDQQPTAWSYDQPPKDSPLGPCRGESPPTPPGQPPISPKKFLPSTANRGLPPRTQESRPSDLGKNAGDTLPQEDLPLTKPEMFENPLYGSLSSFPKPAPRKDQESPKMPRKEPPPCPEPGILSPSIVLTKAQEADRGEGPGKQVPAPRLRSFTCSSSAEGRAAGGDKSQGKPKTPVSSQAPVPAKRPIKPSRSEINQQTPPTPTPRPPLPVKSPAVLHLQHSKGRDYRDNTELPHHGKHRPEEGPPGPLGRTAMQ
Briefly: His-hSHIP1 activity, approach 1 (phosphate release from IP4, Biomol Green). The settings on record: activation of His-hSHIP1; IP4 50 μM; test compound 0-300 μM; no asterisk in Table 2. Format: biochemical. The essentials: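 Compounds at 0–300 μM final, carried in 10% ethanol, were incubated with 5-20 ng His-hSHIP1 and 50 μM IP4. Buffer was Tris pH 7.5 with 10 mM MgCl2 and Tween 20, 15 min at 37° C. Released phosphate was measured with Biomol Green as absorbance at 650 nm.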

In experiment [2] the test system is passive cutaneous anaphylaxis in mice. Briefly: Passive cutaneous anaphylaxis in mice. Type of experiment: in vivo. As to conditions: oral gavage, doses less than 20 mg/kg. As to the method:
The activity of representative compounds on passive cutaneous anaphylaxis in mice was evaluated according to the procedures disclosed by Ovary, J Immunol 81, 355-357, 1958 and Halpern et al., Br J Pharmacol Chemother 20, 389-398, 1963, both of which are incorporated herein by reference in their entirety.
To induce a passive cutaneous anaphylaxis, mice undergo intradermal ear inoculation on their right ear with 25 ng in 20 μL of anti-DNP-IgE. The left ears are untreated and serve as negative controls. Twenty-four hours after inoculation, all mice are administered test compound by oral gavage (PO). Sixty minutes after oral administration, mice are given a tail vein injection of 2% Evan's Blue (0.2 μm filtered, in 200 μL saline) followed by a second tail IV injection of 100 μg DNP-HSA (in 200 μL). Sixty minutes following the DNP-HAS injection, mice are euthanized using CO2 inhalation. Subsequently, ear biopsies are performed by taking four millimetre punches from both ears, which then undergo Evan's Blue extraction using formamide incubation in 96 well plates. Eighty μL of eluents are transferred to flat-bottom 96-well plates and absorbance read using SpectraMax M5 spectrophotometer (Molecular Devices, Sunnyvale, Calif., USA) at 620 nm. Background readings from all samples are taken at 740 nm and subtracted from the 620 nm readings. Data are reported as OD.

Experiment [3] concerns Akt phosphorylation in Jurkat (SHIP1−) lymphocytes. Kind of experiment: Akt phosphorylation in lymphocytes, Jurkat (Western blot). Format: cell-based. Further details: key: +: inhibits Akt phosphorylation at 10 μM; −: no effect on Akt phosphorylation at 10 μM. The settings on record: 10 μM; IGF-1 stimulated Jurkat (PTEN−/SHIP1−) cells. As to the method: Jurkat (PTEN−/SHIP1−) or Molt-4 (PTEN−/SHIP1+) cells are starved in serum free RPMI for overnight. In a 15 mL conical tube, 2-3 million serum starved cells (1 million cells per mL) are treated with various concentrations of test compound (0.1, 1, or 10 μM final in 0.1% DMSO) for 30 min at 37° C. followed by stimulation with 100 ng/mL of IGF-1 for 1 hour at 37° C. After stimulation, cells are washed once with ice-cold DPBS and lysed with Lysis Buffer (20 mM Tris-HCl, pH 7.5, 140 mM NaCl, 1% NP-40, Complete Mini Protease Inhibitor Cocktail, 10 mM NaF, 1 mM Na3VO4, 1 mM β-glycerolphosphate) on ice for 30 min with vortexing every 10 min. Samples are then centrifuged at 13,000 rpm for 20 min, and supernatants are collected as total cell lysate samples. Protein concentration is determined using bicinchonic acid assay, and about 15 μg of total protein from each sample is loaded and separated on a 4-12% Tris-Glycine gel. After SDS-PAGE, proteins are transferred from the gel to a nitrocellulose membrane. The membrane is blocked in 5% BSA in PBS containing 0.1% Tween-20 (PBS-T) for 1 hour at room temperature before probing with primary antibodies for overnight at 4° C. The following antibodies are used: mouse anti-SHIP1 (1:500 dilution; Santa Cruz, Calif., USA), rabbit anti-phospho-Akt(Ser473) (1:1000 dilution; Cell Signaling Technologies, MA, USA), rabbit anti-Akt (1:1000; Cell Signaling Technologies, MA, USA), and rabbit anti-actin (1:2000; Cell Signaling Technologies, MA, USA). The membrane is then incubated with goat anti-rabbit or anti-mouse secondary antibodies (1:3000) for 1 hour at room temperature. Target proteins on the membrane are detected with ECL solution and exposed on a film.
For orientation: Immunoblotting shows a protein as a band on a membrane.

As for `C[C@H]1CC[C@H]2C(C)(C)CCC[C@]2(C)[C@H]1CC(=O)c1cc(O)cc(O)c1` [Compound No. 48, 2-[(1S,2S,4aS,8aR)-2,5,5,8a-tetramethyl-decahydronaphthalen-1-yl]-1-(3,5-dihydroxyphenyl)ethan-1-one], the “inhibition of carrageenan-induced paw edema” value in experiment [1] turned out to be 21%. For the same compound, the “Scoring, Approach 1 (% increase relative to background)” value at His-hSHIP1 enzyme was “+++ (x ≥65)”.

Turning to `CC(=O)N[C@@H]1C[C@H]2C(C)(C)CCC[C@]2(C)[C@@H](C(=O)c2cc(O)cc(O)c2)[C@@H]1C` [Compound No. 57, N-[(2R,3S,4S,4aS,8aS)-4-[(3,5-dihydroxyphenyl)carbonyl]-3,4a,8,8-tetramethyl-decahydronaphthalen-2-yl]acetamide], the “% Inhibition of allergen-induced passive cutaneous anaphylaxis” value in experiment [2] was “+++ (>50% inhibition)”. The “Jurkat (SHIP1 −), Akt phosphorylation” value in experiment [3] is on record as “−”. For the same compound, on His-hSHIP1 enzyme, the “Scoring, Approach 1 (% increase relative to background)” value is given as “+++ (x ≥65)”.

Take `C[C@H]1CC[C@H]2C(C)(C)CCC[C@]2(C)[C@H]1CC(O)c1cc(O)cc(O)c1` (stereo partly drawn) [Compound No. 58, 5-{2-[(1S,2S,4aS,8aR)-2,5,5,8a-tetramethyl-decahydronaphthalen-1-yl]-1-hydroxyethyl}benzene-1,3-diol]: in experiment [2], the “% Inhibition of allergen-induced passive cutaneous anaphylaxis” value is listed as “+++ (>50% inhibition)”. Besides, the “Scoring, Approach 1 (% increase relative to background)” value on His-hSHIP1 enzyme is recorded as “+++ (x ≥65)”.
